According to US20090170862A1, “USE OF C-KIT INHIBITORS FOR THE TREATMENT OF MYELOMA” (priority 2001, published 2009):

Key:
patient PCL cells = assay: Proliferation of patient PCL cells in an adhesion co-culture system with BMSCs; assay type: cell-based, human; details: 5 μM, compared to controls, p<0.0001
Method: (§1) Co-culturing of MM.1S cells or patient PCL cells with BMSCs increases growth of tumor cells by 1.8 to 2.8-fold, compared to the combination of BMSCs and MM cells alone. Addition of PTK787 (5 μM) to this co-culture system decreases proliferation of both MM.1S cells and patient PCL cells by 75% (p<0.0001), when compared to controls. These effects are observed whether the BMSCs are derived from a normal donor or patient BM.

[1] = tested on: A431, Ls174T, HT-29, PC-3 tumor cells; details: cited from earlier work
MM.1S cells [2] = details: for inhibition of proliferation of MM.1S cells: 24 h, dexamethasone 0.1 or 1 μM, PTK787 5 μM; for inhibition of proliferation of MM.1S cells / inhibition of MM.1S proliferation with IL-6: p<0.001; for inhibition of MM.1S proliferation without IL-6: comparison arm
Method: MM cells are first starved for 12 h in RPMI-1640 media containing 2% fetal bovine serum, and then plated into 96-well microtiter plates (Costar, Cambridge, Mass.), in the presence of drug or DMSO control. Experiments are also performed in the presence or absence of VEGF165 (R and D Systems). Proliferation is measured by the incorporation of [^3H]-thymidine (NEN Products, Boston, Mass.). Specifically, cells are pulsed with [^3H]-thymidine (0.5 μCi/well) for the last 6 h of 48 h cultures, harvested onto glass filters with an automatic cell harvester (Cambridge Technology, Cambridge, Mass.), and counted using a LKB Betaplate scintillation counter (Wallac, Gaithersburg, Md.). Measurement of cell viability is performed colorimetrically by MTS assay, utilizing the CellTiter96 AQueous One Solution Reagent (Promega, Madison, Wis.). Cells are exposed to the MTS for the last 2 h of 48 h cultures, and absorbance is measured using an ELISA plate reader (Molecular Devices Corp., Sunnyvale, Calif.) at OD of 570 nm.

MM.1S cells [3] = assay: Survival / cell death of MM.1S cells in the presence of dexamethasone and IL-6; assay type: cell-based, human; details: for inhibition of survival of MM.1S cells: 24 h, dexamethasone 0.1 or 1 μM, PTK787 5 μM, p<0.001
Method: MM.1S cells are incubated for 24 h in 1% RPMI, in the presence or absence of dexamethasone (0.1 or 1 μM), PTK787 (5 μM), IL-6 (20 and 100 ng/ml) and VEGF (50 ng/ml).

MM cell lines = assay: Proliferation of MM cell lines and patient tumor cells ([3H]-thymidine uptake); assay type: cell-based, human
Method: FIGS. 2 to 4. Dose-related effect of PTK787 on proliferation of MM cell lines and patient tumor cells. MM.1S, MM.1R, RPMI 8226, patient PCL cells, patient MM cells and HUVE cells were incubated in the presence of 0 (□), 1 (▪), 5 ( ? ), 10 ( ? ) and 20 ( ? ) μM of PTK787. In addition, HUVE cells are also exposed to 0.01 ( ? ), and 0.1 ( ? ) μM of drug. Proliferation is measured as a percentage of 3H-dT uptake relative to standard. The experiments are performed in triplicate, and standard deviation bars are shown.
RPMI 8226 and U266 human MM cell lines are obtained from the American Type Culture Collection (ATCC) of Rockville, Md. Patient derived MM cells are purified from patient BM samples, as described by Y. T. Tai, G. Teoh, Y. Shima, et al in J. Immunol. Methods 235:11, 2000. All human MM cell lines are cultured in RPMI-1640 media (Sigma Chemical, St. Louis, Mo.), containing 10% fetal bovine serum (FBS), 2 mmol/L L-glutamine (L-glut, GIBCO, Grand Island, N.Y.), 100 U/mL penicillin and […] streptomycin (P/S, GIBCO). MM patient cells are ≧95% CD38+, CD45RA−. Bone marrow stromal cells (BMSCs) are prepared from aspirates of MM patients as well as healthy donors as described by D. Gupta, S. Treon, Y. Shima, et al in Leukemia, 2001 and S. Gartner and H. S. Kaplan in Proc. Natl. Acad. Sci. USA 77:4756, 1980. […]

MM.1S cells [4] = assay: Transwell cell migration assay (modified Boyden chamber); assay type: cell-based, human
Method: MM.1S cells are exposed to PTK787 at concentrations 0, 1, 5 and 10 μM for 4 h and then added to the upper chamber of a transwell system. To the lower wells are added either VEGF (□, 10 ng/ml) or CD40 (Δ, 10 ng/ml), and cells are allowed to migrate to the lower chamber over a 5 h period. A lower chamber without any VEGF or CD40 (∘) serves as a control. Migrated cells are counted on a Beckman Coulter counter, and a migration index is obtained as described in Example 2, below. Experiments are performed in triplicate, and standard deviation bars are shown.
The migration assay is performed in a modified Boyden chamber system; using a 24 well plate with 8 μm pore size inserts. Prior to the assay, the upper and lower chambers are pre-coated with fibronectin (10 μg/ml). MM.1S cells are starved in 2% RPMI media for 6 hours prior to assay, then treated with drug or DMSO control for 4 h. MM cells (2×10^6 cells/ml) are then placed into the upper chamber of the transwell system. To the lower chamber is added RPMI (1% FBS), 0 or 10 ng/ml of VEGF165, or an activating MoAb to CD40 (10 ng/ml). The plates are then incubated at 37° C. for 6 h, and then cells in the lower chamber are harvested. The number of live migrated cells is gated and measured using a Beckman Coulter counter. A migration index is calculated to compare migration of cells relative to control. The migration index is defined herein as the percentage of live migrated cells in the sample (with or without drug, and ±VEGF), divided by the percentage of live migrated cells in the control (no drug, no VEGF).

MM.1S cells [5] = assay: Proliferation of MM.1S cells in an adhesion co-culture system with BMSCs; assay type: cell-based, human; details: 5 μM, compared to controls, p<0.0001
Method: as §1

IL-6 = IL-6 levels in supernatants of MM.1S/BMSC co-culture (ELISA); details: MM.1S/BMSC co-culture supernatants, 48 h
Method: Cytokine levels are measured in supernatants from the co-culture system described above. VEGF and IL-6 concentrations are measured using commercially available ELISA kits (R&D Systems). Statistical significance of differences is determined using unpaired Student's t-test. The minimal level of significance is considered as p<0.05.
Supernatants obtained from a co-culture of MM.1S cells with BMSCs are isolated at 48 h, and IL-6 levels are measured using ELISA assay.

MM.1S cells [6] = assay: Proliferation of MM cells in a modified Boyden chamber transwell co-culture system with BMSCs; assay type: cell-based, human; details: 5 μM; transwell co-culture with BMSCs without contact; 48 h; p<0.001
Method: Proliferation is measured in a modified Boyden chamber transwell system, using 24-well plates with a […] pore size inserts (Costar). BMSCs (4×10^4 cells/well) are plated in the lower chamber, starved, and incubated in drug as described above. MM cells (20×10^4 cells/ml) are then placed in the upper chamber (insert), and [^3H]-thymidine uptake in the individual chambers is measured at 48 h as described above.
MM.1 S cells are placed in the upper chamber of a transwell co-culture system in order to preclude direct contact between MM cells and BMSCs, but nonetheless allow for diffusion of humoral factors. Despite the lack of contact between the two cell types, uptake of [^3H]-dT by MM.1S cells incubated with BMSCs is increased by 2.2-fold (p<0.0001) at 48 h. […] When PTK787 (5 μM) is used in this co-culture system, it reduces proliferation of MM.1S cells by 62% (p<0.001).

[7] = tested on: human carcinomas (A431, Ls174T, HT-29, PC-3); details: Cancer Res. 60: 2178, 2000, cited from earlier work
BMSCs = assay: Viability of BMSCs (trypan blue exclusion and MTS assay); assay type: cell-based, human; details: with PTK787 in the co-culture system

Row | Compound | decrease of proliferation of patient PCL cells (patient PCL cells) | direct effect on tumor cells [1] | inhibition of proliferation of MM.1S cells (MM.1S cells [2]) | inhibition of MM.1S proliferation with IL-6 (MM.1S cells [2]) | inhibition of MM.1S proliferation without IL-6 (MM.1S cells [2]) | inhibition of survival of MM.1S cells (MM.1S cells [3]) | cell death of MM.1S cells without IL-6 (MM.1S cells [3]; PTK787 alone, second value of '54% vs. 65%') | cell death of MM.1S cells with IL-6 (MM.1S cells [3]; PTK787 plus IL-6, first value of '54% vs. 65%', p<0.01) | proliferation of MM.1S, Dex-resistant MM.1R, RPMI, patient PCL and patient MM cells (MM cell lines; 0-20 μM PTK787, 3H-dT uptake) | proliferation in MM cell lines with or without VEGF (MM cell lines; PTK787 (1 to 5 μM), presence or absence of VEGF) | VEGF-induced migration of MM.1S cells (MM.1S cells [4]; 1 μM PTK787, VEGF 10 ng/ml, p=0.002) | baseline and VEGF-induced migration of MM.1S cells (MM.1S cells [4]; 5 and 10 μM PTK787) | migration of MM.1S cells induced by CD40 (MM.1S cells [4]; activating MoAb to CD40 10 ng/ml) | decrease of proliferation of MM.1S cells (MM.1S cells [5]) | decrease of IL-6 concentrations (IL-6) | reduction of proliferation of MM.1S cells (MM.1S cells [6]) | growth of human carcinomas transplanted orthotopically into mice ([7]; A431, Ls174T, HT-29, PC-3) | vessel density in the tumor tissues [7] | viability of BMSCs (BMSCs)
1 | Clc1ccc(Nc2nnc(Cc3ccncc3)c3ccccc23)cc1 [PTK787] | 75% | does not have a direct effect | 35% | 64.7% | 39.3% | 46% | 65% | 54% | decreases, in a dose dependent manner | abrogates proliferation both in the presence or absence of VEGF | reduced to baseline levels | further reduces | does not significantly inhibit | 75% | 70% | 62% | inhibits the growth | does reduce vessel density | 95%
2 | C[C@@H]1C[C@H]2[C@@H]3CCC4=CC(=O)C=C[C@]4(C)[C@@]3(F)[C@@H](O)C[C@]2(C)[C@@]1(O)C(=O)CO [Dexamethasone, dexamethasone, reference compound] |  |  | 58% | 16% | 70.5% | 83% |  |  |  |  |  |  |  |  |  |  |  |  | 
